PubChem BioAssay AID1963437 (Molecular Pharmacology Branch, DTP, NCI, 2024)
Several values for one entry are separate records, joined by “and”; a condition that tells them apart may be missing. Equal entries are not always repeated.

System: OVCAR-8 complex spheroid, growth inhibition
Test: Anticancer human tumor OVCAR-8 cell line growth inhibition [Asc];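 also: spheroids exposed to agents for 7 days before readout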;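 as to viability, T/C: percent viability relative to DMSO vehicle wells taken as 100%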
Details: for viability, T/C: stronger effect = lower value
Experimental: Multicellular complex tumor spheroid response to apoptosis pathway targeting inhibitors Alrizomadlin, Pelcitoclax, and Dasminapant in combination with a variety of drugs and investigational agents in selected tumor cell lines
The MDM2 inhibitor alrizomadlin, the Bcl-2/Bcl-xL inhibitor pelcitoclax, and the IAPs inhibitor dasminapant were evaluated both individually and in combination with standard of care and investigational anticancer small molecules within a complex spheroid model of solid tumors. . Complex spheroids include a stromal component modeled by human endothelial cells (HUVEC) and fibroblasts modeled by human mesenchymal stem cells (MSCs). The concentration ranges selected for each drug and investigational agent were based upon clinically achievable concentrations if the clinical Cmax of the agent was known.
Compounds. The drugs and investigational agents: alrizomadlin (APG-115; NSC831270), pelcitoclax (APG-1252; NSC835773), dasminapant (APG-1387;NSC834197), TAK-243 (NSC785004), copanlisib (NSC809693), olaparib (NSC753686), talazoparib (NSC767125), cobimetinib (NSC 768068), eltanexor (KPT-8602, NSC 794443), abemaciclib (NSC 768073), sotorasib (NSC818433), adagrasib (NSC 831453), MRTX-1133 (NSC 836407), Iadademestat (ORY1001, NSC 806812), and RMC-4630 (NSC839698), were obtained from the NCI Developmental Therapeutics Program Chemical Repository. The FDA-approved anticancer drug set is available from the Developmental Therapeutics Program at https://dtp.cancer.gov/organization/dscb/obtaining/available plates.htm. […] The stock solutions were prepared in dimethyl sulfoxide (DMSO, Sigma-Aldrich, St. Louis, MO, cat. D2650) at 800-fold the tested concentration and stored at -70 degrees C prior to their use. All drugs and investigational agents were tested over a range starting from a high concentration at or near the clinical Cmax and decreasing in half-log increments. If the clinical Cmax for an agent had not been determined, the highest concentration tested was 10 microM.
The patient-derived cancer (PDC) cell lines include five colon adenocarcinomas: 186277-243-T-J2-PDC, 616215-338-R-J1-PDC, 439559-082-T-J2-PDC, 463943-066-T-J2-PDC, and 519858-162-T-J1-PDC; three pancreatic carcinomas: 323965-272-R-J2-PDC, 521955-158-R6-J3-PDC, and 521955-158-R2-J5-PDC; two uterine sarcomas: 327498-152-R-J2-PDC and 993429-296-R-J1-PDC; two rhabdomyosarcomas: 755483-174-R-J1-PDC and 772245-204-R-J1-PDC; two soft tissue sarcomas: 126254-015-R-J1-PDC and 494315-158-R-J1-PDC; two malignant fibrous histiocytomas: 317291-083-R-J1-PDC and 596521-263-R-J1-PDC; two breast carcinomas: 171881-019-R-J1-PDC and 885512-296-R-J2-PDC; and one ovarian carcinoma: 6556581-035-R-J-PDC were obtained from the NCI PDMR, (https://pdmr.cancer.gov). The established cell lines HSSY-2 synovial sarcoma (RRID:CVCL 8719), SYO-1 synovial sarcoma (RRID:CVCL_7146), MPNST malignant peripheral neural sheath tumor were obtained from the Sloan Kettering Institute. The following established cell lines were purchased from the American Type Culture Collection (ATCC, Manassas, VA), Sor the received from the NCI repository:, PANC-1 pancreatic carcinoma (CRL-1469, RRID:CVCL_0480), OVCAR-5 ovarian carcinoma (RRID:CVCL_1628), OVCAR-8 ovarian carcinoma (RRID:CVCL_1629), , MCF-7 breast carcinoma (CRL-12584, RRID:CVCL_0031), MDA-MB-231 breast carcinoma (CRL-12532, RRID:CVCL_0062), NCI-H1876 small cell lung carcinoma (CRL-5902, RRID:CVCL_1503), NCI-H510A small cell lung carcinoma (HTB-184, RRID:CVCL_1565), NCI-H1417 (CRL-5869, RRID:CVCL_1469), and NCI-H196 small cell lung carcinoma (CRL-5823, RRID:CVCL_1509). Dr. Peter Houghton (Greehey Children's Cancer Research Institute, University of Texas Health Science Center, San Antonio, TX) provided Rh-18 rhabdomyosarcoma (RRID:CVCL_1659). Pooled donor human umbilical vein endothelial cells (HUVEC, Lonza, cat. CC-2519) and human mesenchymal stem cells (hMSC, Lonza, cat. PT-2501) were purchased from Lonza (Walkersville, MD).
Cell Culture. […]

[1] = compound alone, run of 11/07/2022

| SMILES | IC50 (curve of compound) | viability, T/C (compound 0.0316 µM) | viability, T/C (compound 0.1 µM) | viability, T/C (compound 0.316 µM) | viability, T/C (compound 1 µM) | viability, T/C (compound 3.16 µM) | viability, T/C (compound 0.00316 µM) | viability, T/C (compound 0.01 µM) | further results |
| --- | --- | --- | --- | --- | --- | --- | --- | --- | --- |
| C=CC(=O)N1CCN(c2nc(=O)n(-c3c(C)ccnc3C(C)C)c3nc(-c4c(O)cccc4F)c(F)cc23)C(C)C1 (stereo unspecified) | > 10000 nM | 106% and 97.9% and 94.2% | 102% and 109% and 80.9% | 84.7% and 95.3% and 101% | 98.6% and 95.9% and 99.3% | 86.1% and 102% and 101% |  |  | viability, T/C (compound 10 µM): 108% and 99.7% and 96.6% |
| CCN1C(C(=O)NC23CCC(C(=O)O)(CC2)CC3)C(c2cccc(Cl)c2F)C2(C(=O)Nc3cc(Cl)ccc32)C12CCCCC2 (stereo unspecified) | > 3000 nM |  |  |  |  |  |  |  | viability, T/C (compound 0.03 µM): 93.4% [middle of 9 runs]; viability, T/C (compound 0.949 µM): 100% [middle of 9 runs]; viability, T/C (compound 3 µM): 104% [middle of 9 runs]; IC50 [1]: > 3000 nM |
| CNC(C)C(=O)NC1CN(S(=O)(=O)c2cccc(S(=O)(=O)N3CCC4CCC(C(=O)NC(c5ccccc5)c5ccccc5)N4C(=O)C(NC(=O)C(C)NC)C3)c2)CCC2CCC(C(=O)NC(c3ccccc3)c3ccccc3)N2C1=O (stereo unspecified) | > 1000 nM |  |  |  |  |  |  |  |  |
| Cc1c(S(C)(=O)=O)c(-c2cc(F)cc(N3CCN(c4ccc(NS(=O)(=O)c5ccc(NC(CCN6CCC(C(=O)OCCCP(=O)(O)O)CC6)CSc6ccccc6)c(S(=O)(=O)C(F)(F)F)c5)cc4)CC3)c2)c(-c2ccc(Cl)cc2)n1C(C)C (stereo unspecified) |  | 91.2% [middle of 7 runs] | 94% [middle of 7 runs] |  | 98.1% [middle of 7 runs] | 104% [middle of 7 runs] |  |  | IC50 [1]: > 10000 nM |
| Cn1ncnc1[C@H]1c2n[nH]c(=O)c3cc(F)cc(c23)N[C@@H]1c1ccc(F)cc1 | > 100 nM | 115% and 117% and 105% | 132% and 102% and 125% |  |  |  | 95.5% and 93.6% and 106% | 114% and 102% and 109% | viability, T/C (compound 0.000316 µM): 92.4% and 93.5% and 99.5%; viability, T/C (compound 0.001 µM): 94.9% and 97.8% and 88.9% |
| NC(=O)C(=Cn1cnc(-c2cc(C(F)(F)F)cc(C(F)(F)F)c2)n1)c1cncnc1 | > 300 nM and 54.1 nM |  |  |  |  |  |  |  | viability, T/C (compound 0.000949 µM): 100% and 101% and 69.2%; viability, T/C (compound 0.003 µM): 90% and 81.8% and 98.6%; viability, T/C (compound 0.00949 µM): 99.8% and 91.2% and 111%; viability, T/C (compound 0.03 µM): 95.4% and 109% and 92.8% |
| NC1CCC(NC2CC2c2ccccc2)CC1 (stereo unspecified) | > 100 nM | 113% and 98.7% and 95% | 83% and 91.6% and 115% |  |  |  | 83.1% and 85.2% and 104% | 104% and 81.5% and 119% | viability, T/C (compound 0.000316 µM): 94.7% and 96.7% and 105%; viability, T/C (compound 0.001 µM): 87.7% and 82.6% and 99.8% |
| O=C(c1ccc(F)c(F)c1Nc1ccc(I)cc1F)N1CC(O)([C@@H]2CCCCN2)C1 | > 1000 nM | 138% and 165% and 133% | 153% and 165% and 190% | 210% and 216% and 228% | 107% and 80.8% and 86.8% |  | 95.4% and 98.1% and 96.1% | 122% and 101% and 111% |  |

Continued, in another order:

| IC50 (curve of compound) | SMILES | viability, T/C (compound 0.0316 µM) | viability, T/C (compound 0.1 µM) | viability, T/C (compound 0.316 µM) | viability, T/C (compound 1 µM) | viability, T/C (compound 3.16 µM) | viability, T/C (compound 0.00316 µM) | viability, T/C (compound 0.01 µM) | further results |
| --- | --- | --- | --- | --- | --- | --- | --- | --- | --- |
| > 10000 nM | C#Cc1c(F)ccc2cc(O)cc(-c3ncc4c(N5CC6CCC(C5)N6)nc(OCC56CCCN5CC(F)C6)nc4c3F)c12 (stereo unspecified) | 110% and 90.4% and 96.5% | 95.6% and 80.1% and 97.5% | 101% and 110% and 87% | 110% and 94.2% and 95% | 93.7% and 83.9% and 94.7% |  |  | viability, T/C (compound 10 µM): 116% and 98.9% and 85.9% |
| 2190 nM and 2550 nM and 2560 nM | C=C(F)C(=O)N1CCN(c2nc(OCC3CCCN3C)nc3c2CCN(c2cccc4cccc(Cl)c24)C3)CC1CC#N (stereo unspecified) | 107% (2×) and 96.3% | 113% and 98.5% and 93.6% | 109% and 84.2% and 106% | 101% and 105% and 104% | 25.7% and 39.4% and 37.9% |  |  | viability, T/C (compound 10 µM): 0.33% and 0.7% and 1.79% |
| > 1000 nM | CCN1CCN(Cc2ccc(Nc3ncc(F)c(-c4cc(F)c5nc(C)n(C(C)C)c5c4)n3)nc2)CC1 | 93.1% and 93.5% and 107% | 104% and 84.9% and 103% | 98.6% and 100% and 98.5% | 125% and 105% and 129% |  | 81.5% and 87.7% and 87.9% | 101% and 93.5% and 90.3% |  |
| > 1000 nM | COc1c(OCCCN2CCOCC2)ccc2c3n(c(=NC(=O)c4cnc(N)nc4)nc12)CCN3 | 120% and 123% and 130% | 167% and 133% and 157% | 134% and 141% and 143% | 77% and 89.5% and 94.5% |  | 98.2% and 94.8% and 108% | 111% and 110% and 109% |  |
| > 3000 nM | Cc1nc(N2CCC3(CC2)COC(C)C3N)c(CO)nc1Sc1ccnc(N)c1Cl (stereo unspecified) |  |  |  |  |  |  |  | viability, T/C (compound 0.00949 µM): 111% and 101% and 103%; viability, T/C (compound 0.03 µM): 121% and 112% and 102%; viability, T/C (compound 0.0949 µM): 195% and 147% and 149%; viability, T/C (compound 0.3 µM): 239% and 173% and 192%; viability, T/C (compound 0.949 µM): 261% and 212% and 243%; viability, T/C (compound 3 µM): 261% and 201% and 223% |
| > 10000 nM | O=C(c1cc(Cc2n[nH]c(=O)c3ccccc23)ccc1F)N1CCN(C(=O)C2CC2)CC1 | 105% and 97.4% and 98.4% | 103% (2×) and 97.7% | 99% and 82.4% and 107% | 117% and 95.4% and 121% | 134% and 104% and 110% |  |  | viability, T/C (compound 10 µM): 116% and 122% and 95.5% |
